Assay results published in patent publication US9670227B2, “Thienopyrimidine derivatives, a process for their preparation and pharmaceutical compositions containing them” (LES LABORATOIRES SERVIER, priority 2013, dated 2017).
Like-named read-outs stand apart in the source and are kept apart here.

How the values were obtained:
Mcl-1 protein = Mcl-1 protein (UniProtKB primary accession number: Q07820) (Homo sapiens, UniProt Q07820); experiment: Inhibition of Mcl-1 by fluorescence polarisation, Method 1; type: binding; settings: fluorescence polarisation; Method 1, or Method 2; read-out: IC50 (M) Mcl-1 FP
Procedure, shortened: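 Binding was measured as fluorescence polarisation of a fluorescein-labelled ligand (1 nM) displaced from Mcl-1 (5 nM), both final. Compounds ran as 11-point series with final DMSO at 5%.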

[1] = system: H929 multiple myeloma tumour line; experiment: In vitro cytotoxicity, Microculture Tetrazolium Assay; type: cell-based; settings: H929 cells, 48 hours exposure, MTT, read-out: IC50 (μM) MTT H929
Experimental: The cytotoxicity studies were carried out on the H929 multiple myeloma tumour line.
The cells are distributed onto microplates and exposed to the test compounds for 48 hours.

Chain of Mcl-1 protein (Q07820 whole entry): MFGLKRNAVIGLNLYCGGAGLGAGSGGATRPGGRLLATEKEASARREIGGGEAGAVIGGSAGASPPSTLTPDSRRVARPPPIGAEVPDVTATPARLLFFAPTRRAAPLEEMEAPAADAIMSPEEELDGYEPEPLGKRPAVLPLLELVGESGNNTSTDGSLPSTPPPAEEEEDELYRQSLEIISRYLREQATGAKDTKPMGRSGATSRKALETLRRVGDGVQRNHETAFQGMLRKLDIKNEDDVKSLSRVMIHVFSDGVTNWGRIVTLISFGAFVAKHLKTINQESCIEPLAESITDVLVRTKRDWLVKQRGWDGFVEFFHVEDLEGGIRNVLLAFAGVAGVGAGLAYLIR

Row | Structure (SMILES) | IC50 (Mcl-1 protein) [M] | IC50 ([1]; Homo sapiens, NCI-H929, 48 h) [µM] | IC50 [1] [µM]
1 | CC#Cc1sc2ncnc(OC(Cc3ccccc3OC)C(=O)O)c2c1-c1ccc(OCCN2CCCCC2)c(Cl)c1C [Example 469, (2R)-2-{[(5Sa)-5-{3-chloro-2-methyl-4-[2-(piperidin-1-yl)ethoxy]phenyl}-6-(prop-1-yn-1-yl)thieno[2,3-d]pyrimidin-4-yl]oxy}-3-(2-methoxyphenyl)propanoic acid] | 1.5e-08 | 3.06 | 
2 | CC#Cc1sc2ncnc(O[C@H](Cc3ccccc3OC)C(=O)O)c2c1-c1cc(C)c(OCCN2CCN(C)CC2)c(Cl)c1C [Example 475, (2R)-2-{[(5Sa)-5-{3-chloro-2,5-dimethyl-4-[2-(4-methylpiperazin-1-yl)ethoxy]phenyl}-6-(prop-1-yn-1-yl)thieno[2,3-d]pyrimidin-4-yl]oxy}-3-(2-methoxyphenyl)propanoic acid] | 6.8e-09 |  | 1.12
3 | CC#Cc1sc2ncnc(OC(Cc3ccccc3OC)C(=O)O)c2c1-c1cc(F)c(OCCN2CCN(C)CC2)c(Cl)c1C [Example 476, (2R)-2-{[(5Sa)-5-{3-chloro-5-fluoro-2-methyl-4-[2-(4-methylpiperazin-1-yl)ethoxy]phenyl}-6-(prop-1-yn-1-yl)thieno[2,3-d]pyrimidin-4-yl]oxy}-3-(2-methoxyphenyl)propanoic acid] | 2e-08 | 1.03 | 
4 | CC#Cc1sc2ncnc(OC(Cc3ccccc3OC)C(=O)O)c2c1-c1cc(OC)c(OCCN2CCN(C)CC2)c(Cl)c1C [Example 477, (2R)-2-{[(5Sa)-5-{3-chloro-5-methoxy-2-methyl-4-[2-(4-methylpiperazin-1-yl)ethoxy]phenyl}-6-(prop-1-yn-1-yl)thieno[2,3-d]pyrimidin-4-yl]oxy}-3-(2-methoxyphenyl)propanoic acid] | 5.6e-08 | 2.57 | 
5 | CC#Cc1sc2ncnc(OC(Cc3ccccc3OCC)C(=O)O)c2c1-c1ccc(OCCN2CCN(C)CC2)c(Cl)c1C [Example 481, (2R)-2-{[(5Sa)-5-{3-chloro-2-methyl-4-[2-(4-methylpiperazin-1-yl)ethoxy]phenyl}-6-(prop-1-yn-1-yl)thieno[2,3-d]pyrimidin-4-yl]oxy}-3-(2-ethoxyphenyl)propanoic acid] | 5.4e-09 | 0.643 | 
6 | CC#Cc1sc2ncnc(OC(Cc3ccccc3OCc3ccnc(CCOC)n3)C(=O)O)c2c1-c1ccc(OCCN2CCN(C)CC2)c(Cl)c1C [Example 484, (2R)-2-{[(5Sa)-5-{3-chloro-2-methyl-4-[2-(4-methylpiperazin-1-yl)ethoxy]phenyl}-6-(prop-1-yn-1-yl)thieno[2,3-d]pyrimidin-4-yl]oxy}-3-(2-{[2-(2-methoxyethyl)pyrimidin-4-yl]methoxy}phenyl)propanoic acid] | 3.4e-09 | 0.014 | 
7 | CC#Cc1sc2ncnc(OC(Cc3ccccc3OCc3ccnc(OC)n3)C(=O)O)c2c1-c1ccc(OCCN2CCN(C)CC2)c(Cl)c1C [Example 486, (2R)-2-{[(5Sa)-5-{3-chloro-2-methyl-4-[2-(4-methylpiperazin-1-yl)ethoxy]phenyl}-6-(prop-1-yn-1-yl)thieno[2,3-d]pyrimidin-4-yl]oxy}-3-{2-[(2-methoxypyrimidin-4-yl)methoxy]phenyl}propanoic acid] | 1.9e-09 | 0.146 | 
8 | CC#Cc1sc2ncnc(OC(Cc3cccc4occc34)C(=O)O)c2c1-c1ccc(OCCN2CCN(C)CC2)c(Cl)c1C [Example 492, (2R)-3-(1-benzofuran-4-yl)-2-{[(5Sa)-5-{3-chloro-2-methyl-4-[2-(4-methylpiperazin-1-yl)ethoxy]phenyl}-6-(prop-1-yn-1-yl)thieno[2,3-d]pyrimidin-4-yl]oxy}propanoic acid] | 9e-08 | 2.19 | 
9 | Cc1c(-c2c(-c3cc4ccccc4s3)sc3ncnc(OC(Cc4ccccc4)C(=O)O)c23)ccc(OCCN2CCN(C)CC2)c1Cl [Example 497, (2R)-2-{[6-(1-benzothiophen-2-yl)-(5Sa)-5-{3-chloro-2-methyl-4-[2-(4-methylpiperazin-1-yl)ethoxy]phenyl}thieno[2,3-d]pyrimidin-4-yl]oxy}-3-phenylpropanoic acid] | 9.1e-07 | 5.95 | 
10 | Cc1c(-c2c(-c3ccoc3)sc3ncnc(OC(Cc4ccccc4)C(=O)O)c23)ccc(OCCN2CCN(C)CC2)c1Cl [Example 509, (2R)-2-{[(5Sa)-5-{3-chloro-2-methyl-4-[2-(4-methylpiperazin-1-yl)ethoxy]phenyl}-6-(furan-3-yl)thieno[2,3-d]pyrimidin-4-yl]oxy}-3-phenylpropanoic acid] | 6.2e-08 | 1.46 | 
11 | Cc1c(-c2c(-c3ccsc3)sc3ncnc(OC(Cc4ccccc4)C(=O)O)c23)ccc(OCCN2CCN(C)CC2)c1Cl [Example 510, (2R)-2-{[(5Sa)-5-{3-chloro-2-methyl-4-[2-(4-methylpiperazin-1-yl)ethoxy]phenyl}-6-(thiophen-3-yl)thieno[2,3-d]pyrimidin-4-yl]oxy}-3-phenylpropanoic acid] | 3.9e-08 | 0.639 | 
12 | Cc1c(-c2c(-c3cncs3)sc3ncnc(OC(Cc4ccccc4)C(=O)O)c23)ccc(OCCN2CCN(C)CC2)c1Cl [Example 512, (2R)-2-{[(5Sa)-5-{3-chloro-2-methyl-4-[2-(4-methylpiperazin-1-yl)ethoxy]phenyl}-6-(1,3-thiazol-5-yl)thieno[2,3-d]pyrimidin-4-yl]oxy}-3-phenylpropanoic acid] | 1.3e-07 | 7.42 | 
13 | Cc1c(-c2c(Br)sc3ncnc(OC(Cc4ccccc4)C(=O)O)c23)ccc(OCCN2CCN(C)CC2)c1Cl [Example 518, (2R)-2-[(6-bromo-(5Sa)-5-{3-chloro-2-methyl-4-[2-(4-methylpiperazin-1-yl)ethoxy]phenyl}thieno[2,3-d]pyrimidin-4-yl)oxy]-3-phenylpropanoic acid] | 3.5e-08 | 9.18 | 
14 | COc1ccccc1CC(Oc1ncnc2sc(-c3cc(F)c(F)c(F)c3)c(-c3ccc(OCCN4CCN(C)CC4)c(Cl)c3C)c12)C(=O)O [Example 523, (2R)-2-{[(5Sa)-5-{3-chloro-2-methyl-4-[2-(4-methylpiperazin-1-yl)ethoxy]phenyl}-6-(3,4,5-trifluorophenyl)thieno[2,3-d]pyrimidin-4-yl]oxy}-3-(2-methoxyphenyl)propanoic acid] | 1.8e-09 | 0.532 | 

Further lines, with some results ahead:

Row | IC50 (Mcl-1 protein) [M] | Structure (SMILES) | IC50 ([1]; Homo sapiens, NCI-H929, 48 h) [µM] | IC50 [1] [µM]
15 | 3.6e-08 | Cc1csc(-c2sc3ncnc(OC(Cc4ccccc4)C(=O)O)c3c2-c2ccc(OCCN3CCN(C)CC3)c(Cl)c2C)c1 [Example 495, (2R)-2-{[(5Sa)-5-{3-chloro-2-methyl-4-[2-(4-methylpiperazin-1-yl)ethoxy]phenyl}-6-(4-methylthiophen-2-yl)thieno[2,3-d]pyrimidin-4-yl]oxy}-3-phenylpropanoic acid] | 1.19 | 
16 | 1e-07 | Cc1ccc(-c2sc3ncnc(OC(Cc4ccccc4)C(=O)O)c3c2-c2ccc(OCCN3CCN(C)CC3)c(Cl)c2C)o1 [Example 499, (2R)-2-{[(5Sa)-5-{3-chloro-2-methyl-4-[2-(4-methylpiperazin-1-yl)ethoxy]phenyl}-6-(5-methylfuran-2-yl)thieno[2,3-d]pyrimidin-4-yl]oxy}-3-phenylpropanoic acid] | 1.5 | 
17 | 8e-08 | Cc1ccc(-c2sc3ncnc(O[C@H](Cc4ccccc4)C(=O)O)c3c2-c2ccc(OCCN3CCN(C)CC3)c(Cl)c2C)s1 [Example 500, (2R)-2-{[(5Sa)-5-{3-chloro-2-methyl-4-[2-(4-methylpiperazin-1-yl)ethoxy]phenyl}-6-(5-methylthiophen-2-yl)thieno[2,3-d]pyrimidin-4-yl]oxy}-3-phenylpropanoic acid] |  | 2.25
18 | 2.8e-07 | Cc1c(-c2c(-c3ccc(Cl)s3)sc3ncnc(OC(Cc4ccccc4)C(=O)O)c23)ccc(OCCN2CCN(C)CC2)c1Cl [Example 501, (2R)-2-{[(5Sa)-5-{3-chloro-2-methyl-4-[2-(4-methylpiperazin-1-yl)ethoxy]phenyl}-6-(5-chlorothiophen-2-yl)thieno[2,3-d]pyrimidin-4-yl]oxy}-3-phenylpropanoic acid] | 2.84 | 
19 | 5e-07 | Cc1c(-c2c(-c3cccn3C)sc3ncnc(OC(Cc4ccccc4)C(=O)O)c23)ccc(OCCN2CCN(C)CC2)c1Cl [Example 503, (2R)-2-{[(5Sa)-5-{3-chloro-2-methyl-4-[2-(4-methylpiperazin-1-yl)ethoxy]phenyl}-6-(1-methyl-1H-pyrrol-2-yl)thieno[2,3-d]pyrimidin-4-yl]oxy}-3-phenylpropanoic acid] | 7.02 | 
20 | 7.5e-08 | Cc1c(-c2c(-c3ccn(C)n3)sc3ncnc(OC(Cc4ccccc4)C(=O)O)c23)ccc(OCCN2CCN(C)CC2)c1Cl [Example 506, (2R)-2-{[(5Sa)-5-{3-chloro-2-methyl-4-[2-(4-methylpiperazin-1-yl)ethoxy]phenyl}-6-(1-methyl-1H-pyrazol-3-yl)thieno[2,3-d]pyrimidin-4-yl]oxy}-3-phenylpropanoic acid] | 8.29 | 
21 | 9.6e-08 | Cc1cc(-c2sc3ncnc(OC(Cc4ccccc4)C(=O)O)c3c2-c2ccc(OCCN3CCN(C)CC3)c(Cl)c2C)cs1 [Example 514, (2R)-2-{[(5Sa)-5-{3-chloro-2-methyl-4-[2-(4-methylpiperazin-1-yl)ethoxy]phenyl}-6-(5-methylthiophen-3-yl)thieno[2,3-d]pyrimidin-4-yl]oxy}-3-phenylpropanoic acid] | 1.7 | 
22 | 1.3e-07 | Cc1cscc1-c1sc2ncnc(O[C@H](Cc3ccccc3)C(=O)O)c2c1-c1ccc(OCCN2CCN(C)CC2)c(Cl)c1C [Example 516, (2R)-2-{[(5Sa)-5-{3-chloro-2-methyl-4-[2-(4-methylpiperazin-1-yl)ethoxy]phenyl}-6-(4-methylthiophen-3-yl)thieno[2,3-d]pyrimidin-4-yl]oxy}-3-phenylpropanoic acid] |  | 5.07
